This is an account of results in patent US20240156982A1, “METHOD OF FORMING PEPTIDE-COATED NANOPARTICLES” (Research Foundation of the City University of New York, priority 2022, published 2024).

Data set [1] has as its system HUVEC. In words: MTT viability assay. Format: cell-based, human. The method, then: (§1) FIG. 8 depicts a series of graphs showing in vitro viability with RGDFFF (SEQ ID NO: 1)-CA4 NP. Each column represents the mean and standard deviation of N=3 and p<0.005 (HUVEC, OVCAR-3), p<0.04 (TOV-21G, OV-90), p<0.03 (CP70), p<0.02 (A2780), p<0.01 (ES-2), p<0.12 (SKOV-3).
(§2) The biological activity of RGDFFF (SEQ ID NO: 1)-CA4 NPs in cell culture was also evaluated. As determined by HPLC, the CA4 drug payload in the NP was 0.2 wt. %. First, IC50 values were established for the NPs in all cells and subsequently performed MTT viability assays in HUVEC and OvCA cells using the respective IC50 values. The RGDFFF-CA4 NPs were compared to cells only without treatment, free CA4, and empty RGDFFF (SEQ ID NO: 1)-NPs without CA4, as shown in FIG. 8. […] Optical microscopy was used to examine the morphological changes in the cells after incubation with RGDFFF (SEQ ID NO: 1)-CA4 NP. This was done since CA4 is a microtubule depolymerizing agent that disrupts internal cell architecture.
(Formazan colour is commonly taken as a measure of viable cells.)

For data set [2], the system named is OVCAR-3. Briefly: MTT viability assay. It is filed as cell-based. The procedure:
as §1, §2

The subject of data set [3] is TOV-21G. Briefly: MTT viability assay. It is filed as cell-based. The method, then:
as §1, §2

Data set [4] relates to SKOV-3. In words: MTT viability assay. Format: cell-based. The procedure:
as §1, §2

The subject of data set [5] is CP70. Briefly: MTT viability assay. Format: cell-based. The procedure: as §1, §2
Data set [6] deals with OV-90. In words: MTT viability assay. It is filed as cell-based. The method, then:
as §1, §2

The subject of data set [7] is ES-2. Briefly: MTT viability assay. Format: cell-based. The method, then: as §1, §2
Data set [8] deals with A2780. Briefly: MTT viability assay. It is filed as cell-based. The method, then: as §1, §2
For data set [9] the following is noted: cited from earlier work.

By IC50 is commonly meant the point on the concentration scale where inhibition reaches its midpoint. Read a high IC50 as weaker potency. As for `COc1ccc(/C=C\c2cc(OC)c(OC)c(OC)c2)cc1O` [CA4, combretastatin A4], the IC50 in data set [1] came out at 2 nM; in data set [2], 2.5 nM; in data set [3], 25 nM; in data set [4] it was 10 nM; in data set [5] it was 4 nM; in data set [6] it was 100 nM. Besides, the IC50 in data set [7] and in data set [8] was 5 nM each time. Further, the solubility in water result in data set [9] is reported as “not soluble in water”.
